# Data taken from ChEMBL document CHEMBL1201862, “PubChem BioAssay data set” (2004).
# Calls of active or inactive are those of the source.
# Key:
# [1] = molecular target: Serine/threonine-protein kinase pim-1 (Homo sapiens, UniProt P11309); type: functional
# [2] = molecular target: Serine/threonine-protein kinase pim-3 (Homo sapiens, UniProt Q86V86); type: functional;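 also: value obtained as one member of a broad kinase panel profiling effort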
# [3] = molecular target: Mitogen-activated protein kinase kinase kinase kinase 5 (Homo sapiens, UniProt Q9Y4K4); type: functional;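 also: measured as one member of a kinome-spanning kinase panel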
# [4] = molecular target: Glycogen synthase kinase-3 beta (Homo sapiens, UniProt P49841); type: functional;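 also: value comes from a broad kinome profiling panel, with GSK3B as the panel member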
# [5] = molecular target: Mitogen-activated protein kinase kinase kinase kinase 4 (Homo sapiens, UniProt O95819); type: functional
# [6] = molecular target: Serine/threonine-protein kinase BRSK1 (Homo sapiens, UniProt Q8TDC3); type: functional;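 also: measured within a kinome-wide kinase panel, with the target listed as KIAA1811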
# [7] = molecular target: Aryl hydrocarbon receptor (Homo sapiens, UniProt P35869); conditions: Potency;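 also: confirmatory quantitative high-throughput screen measuring activation of the AhR signaling pathway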
# [8] = molecular target: T1, Calpain-2 catalytic subunit (Sus scrofa, UniProt P43367); test: pig calpain II inhibitor potency, dose response, biochemical, fluorogenic peptide substrate (AID 1420); type: functional
# T1 sequence (P43367 whole entry): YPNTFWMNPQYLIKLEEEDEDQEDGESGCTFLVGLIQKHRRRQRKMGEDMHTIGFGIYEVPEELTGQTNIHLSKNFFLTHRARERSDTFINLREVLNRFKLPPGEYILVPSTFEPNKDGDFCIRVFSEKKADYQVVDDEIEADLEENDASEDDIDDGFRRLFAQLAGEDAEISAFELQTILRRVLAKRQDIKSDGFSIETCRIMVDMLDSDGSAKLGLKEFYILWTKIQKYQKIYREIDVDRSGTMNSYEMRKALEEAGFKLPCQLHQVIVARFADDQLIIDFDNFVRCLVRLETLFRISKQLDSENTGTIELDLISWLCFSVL
# [9] = molecular target: T2, Low molecular weight phosphotyrosine protein phosphatase (Homo sapiens, UniProt P24666); type: functional; conditions: read-out: IC50_Mean
# T2 sequence (P24666 whole entry): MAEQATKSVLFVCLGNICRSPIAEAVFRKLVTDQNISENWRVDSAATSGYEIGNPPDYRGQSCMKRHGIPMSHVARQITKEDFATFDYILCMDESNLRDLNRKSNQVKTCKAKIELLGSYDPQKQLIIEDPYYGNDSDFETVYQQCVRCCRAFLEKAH
# [10] = molecular target: T2, Low molecular weight phosphotyrosine protein phosphatase; type: functional; conditions: read-out: IC50_Mean; remark: listed apart in the source
# [11] = molecular target: Potassium voltage-gated channel subfamily KQT member 2 (Rattus norvegicus, UniProt O88943); test: KCNQ2 potassium channel inhibitors, dose response, cell-based, automated electrophysiology, set II, rat KCNQ2 (AID 588637); type: functional
# [12] = molecular target: Tyrosine-protein phosphatase non-receptor type 11 (Homo sapiens, UniProt Q06124); test: SHP2 phosphatase inhibition, dose response, selectivity assay for STEP inhibitor project, biochemical (AID 602367); type: functional; conditions: read-out: IC50_Mean
# [13] = molecular target: Tyrosine-protein phosphatase non-receptor type 5 (Homo sapiens, UniProt P54829); test: STEP phosphatase inhibitors, confirmation, biochemical, fluorescence intensity, uHTS hits (AID 602372); type: functional; conditions: read-out: IC50_Mean
# [14] = molecular target: Dual specificity protein phosphatase 3 (Homo sapiens, UniProt P51452); test: VHR phosphatase inhibition, dose response, selectivity assay for STEP inhibitor project, biochemical (AID 602374); type: functional; conditions: read-out: IC50_Mean
# CHO-K1 = test: Counterscreen for antagonists of the orexin 1 receptor (OX1R; HCRTR1): Homogeneous time resolved fluorescence (HTRF)-based cell-based dose response assay to identify antagonists of the parental CHO-K1 cell line. [Related pubchem assays (depositor defined):AID434989, AID435008, AID463079, AID485270, AID492963, AID492964, AID492965, AID493232, AID504699, AID504701]; type: functional; conditions: Cricetulus griseus;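 also: potency for inhibition of ATP-stimulated IP1 production as antagonists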
# [15] = Counterscreen for antagonists of the orexin 1 receptor (OX1R; HCRTR1): Fluorescence-based cell-based high throughput dose response assay to identify antagonists of the parental CHO cell line. [Related pubchem assays (depositor defined):AID434989, AID435008, AID463079, AID485270, AID492963, AID492964, AID492965, AID493232, AID504699, AID504701]; type: functional
# [16] = molecular target: T3, Orexin/Hypocretin receptor type 1 (Homo sapiens, UniProt O43613); test: Homogeneous Time Resolved Fluorescence (HTRF)-based cell-based high throughput dose response assay for antagonists of the orexin 1 receptor (OX1R; HCRTR1). [Related pubchem assays (depositor defined):AID434989, AID435008, AID463079, AID485270, AID492963, AID492964, AID492965, AID493232, AID504717, AID504718]; type: functional
# T3 sequence (O43613 whole entry): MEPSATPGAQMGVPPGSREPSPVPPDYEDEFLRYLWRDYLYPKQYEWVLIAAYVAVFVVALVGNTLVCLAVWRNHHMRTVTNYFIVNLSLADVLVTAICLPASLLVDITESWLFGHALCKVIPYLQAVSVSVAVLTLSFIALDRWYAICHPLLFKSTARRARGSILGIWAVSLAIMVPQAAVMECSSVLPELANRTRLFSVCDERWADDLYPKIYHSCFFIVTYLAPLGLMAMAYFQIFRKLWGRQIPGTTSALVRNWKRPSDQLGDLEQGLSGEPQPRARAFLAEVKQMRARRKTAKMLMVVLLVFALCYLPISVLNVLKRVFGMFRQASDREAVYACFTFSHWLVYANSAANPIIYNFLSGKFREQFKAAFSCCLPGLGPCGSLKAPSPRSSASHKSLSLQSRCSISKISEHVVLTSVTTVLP
# [17] = molecular target: T3, Orexin/Hypocretin receptor type 1; test: Fluorescence-based cell-based high throughput dose response assay for antagonists of the orexin 1 receptor (OX1R; HCRTR1). [Related pubchem assays (depositor defined):AID434989, AID435008, AID463079, AID485270, AID492963, AID492964, AID492965, AID493232, AID504717, AID504718]; type: functional
# Orexin receptor type 2 [18] = molecular target: T4, Orexin receptor type 2 (Homo sapiens, UniProt O43614); test: Counterscreen assay for antagonists of the orexin 1 receptor (OX1R; HCRTR1): Fluorescence-based cell-based dose response assay for antagonists of the orexin 2 receptor (OX2R; HCRTR2), run by assay provider.; type: functional
# T4 sequence (O43614 whole entry): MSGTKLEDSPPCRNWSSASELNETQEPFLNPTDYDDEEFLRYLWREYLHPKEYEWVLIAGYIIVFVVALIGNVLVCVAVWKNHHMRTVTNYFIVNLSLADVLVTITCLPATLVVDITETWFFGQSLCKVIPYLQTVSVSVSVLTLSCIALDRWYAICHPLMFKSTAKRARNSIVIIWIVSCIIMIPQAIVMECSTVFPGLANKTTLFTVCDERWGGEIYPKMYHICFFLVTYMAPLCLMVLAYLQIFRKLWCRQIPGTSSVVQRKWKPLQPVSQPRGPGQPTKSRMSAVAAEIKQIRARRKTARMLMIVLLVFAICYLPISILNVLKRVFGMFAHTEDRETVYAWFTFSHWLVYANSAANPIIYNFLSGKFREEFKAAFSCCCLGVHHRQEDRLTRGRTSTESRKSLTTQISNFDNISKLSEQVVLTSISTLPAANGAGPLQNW
# Orexin receptor type 2 [19] = molecular target: T4, Orexin receptor type 2; test: Counterscreen assay for antagonists of the orexin 1 receptor (OX1R; HCRTR1): Homogeneous Time Resolved Fluorescence (HTRF)-based cell-based dose response assay for antagonists of the orexin 2 receptor (OX2R; HCRTR2), run by assay provider.; type: functional
# [20] = AlphaScreen signal interference compounds, dose response, artefact control for ARNT-TACC3 interaction inhibitor project, biochemical, luminescence, cherry-pick (AID 651705); type: functional;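 also: AlphaScreen bead proximity signal that flags compounds interfering with the detection technology; potency reflects signal decrease which marks the compound as an assay artifact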
# Interleukin-8 [21] = molecular target: T5, Interleukin-8 (Homo sapiens, UniProt P10145); test: Dose Response confirmation of uHTS small molecule hits for cystic fibrosis induced NFkb Inhibitors in a TNFa-induced IL8 counterscreen.; type: functional; conditions: read-out: IC50_Mean
# Interleukin-8 [22] = molecular target: T5, Interleukin-8; test: Dose Response confirmation of uHTS small molecule hits for cystic fibrosis induced NFkb Inhibitors in a PAF-induced IL8 counterscreen.; type: functional; conditions: read-out: IC50_Mean
# [23] = system: Streptococcus sp. 'group A'; test: growth inhibition of control SK(-) GAS strain, dose response, counter-screen for streptokinase expression inhibitor project, luminescence, kanamycin, BacTiterGlo, confirmation (AID 1900); type: functional, organism-based
# Streptokinase A = molecular target: T6, Streptokinase A (Streptococcus pyogenes serotype M1, UniProt P10520); test: S. pyogenes streptokinase expression inhibitors, potency, dose response, plasminogen activation absorbance, OD405 (AID 1914); type: functional, Streptococcus pyogenes M1 GAS;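 also: secreted streptokinase activity via plasminogen activation per viability signal from cell pellet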
# T6 sequence (P10520 whole entry): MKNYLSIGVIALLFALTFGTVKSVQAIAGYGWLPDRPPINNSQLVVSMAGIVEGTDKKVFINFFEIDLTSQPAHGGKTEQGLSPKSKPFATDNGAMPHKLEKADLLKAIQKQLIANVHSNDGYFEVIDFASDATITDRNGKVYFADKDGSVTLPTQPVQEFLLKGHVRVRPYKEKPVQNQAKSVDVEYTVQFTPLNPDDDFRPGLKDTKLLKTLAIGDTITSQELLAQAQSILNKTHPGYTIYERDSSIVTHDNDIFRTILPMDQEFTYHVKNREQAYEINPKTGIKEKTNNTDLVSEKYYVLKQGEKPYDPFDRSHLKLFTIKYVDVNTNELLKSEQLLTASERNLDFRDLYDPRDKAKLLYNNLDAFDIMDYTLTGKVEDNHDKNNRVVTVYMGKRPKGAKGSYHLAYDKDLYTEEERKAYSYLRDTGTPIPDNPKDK
# [24] = molecular target: T7, E3 ubiquitin-protein ligase XIAP (Homo sapiens, UniProt P98170); test: Counter Screen using XIAP-Bir3 for Chemical Antagonists of Bir1/2 domains of IAP-family anti-apoptotic proteins. [Related pubchem assays (depositor defined):AID1018, AID1449, AID1514, AID1638, AID1749, AID1750, AID488957, AID488963]
# [25] = molecular target: T7, E3 ubiquitin-protein ligase XIAP; test: XIAP antagonists, biochemical, IAP family, fluorescence polarization (AID 1018); type: functional
# [26] = inhibitors of intracellular T. cruzi replication, confirmation, NIH3T3 host cells, beta-gal luminescence (AID 2044); type: functional, cell-based;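 also: intracellular parasites grown in NIH/3T3 mouse fibroblasts as host cells; luminescent beta-galactosidase reporter signal from transgenic T. cruzi replicating inside host cells; inhibitors lower the luminescence signal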
# [27] = cytotoxicity toward NIH3T3 fibroblasts, dose response, counter-screen, cell-based, ATP luminescence, mouse fibroblasts (AID 2010); type: functional;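 also: cells exposed to compound for about 90 hours before reading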
# Streptococcus = test: Group A Streptococcus viability loss, dose response, counter-screen for streptokinase expression inhibitor project, luminescence, BacTiterGlo (AID 1915); type: functional, organism-based;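 also: potency for reduction of bacterial viability or growth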
# Melanocortin receptor 4 = Melanocortin receptor 4 (Homo sapiens, UniProt P32245); test: MC4R antagonist potency on cAMP, dose response, cell-based, TR-FRET, biased antagonists (AID 602298); type: functional;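 also: antagonist potency against agonist-stimulated cAMP production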
# [28] = nonselective inhibitors of cellular cAMP signaling, dose response, counter-screen for MC4R biased antagonist project, cell-based, TR-FRET cAMP detection (AID 602305); type: functional;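 also: U2OS cells stimulated with forskolin near its EC80 as the cAMP inducer; potency is for inhibition of forskolin-stimulated cAMP signaling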
# Paired box protein Pax-8 = Paired box protein Pax-8 (Homo sapiens, UniProt Q06710); test: inhibitors of PAX8-driven TPO luciferase reporter, dose response, RMG-I cells, cherry-pick (AID 687027); type: functional, cell-based;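 also: luciferase reporter driven by Pax8 target thyroperoxidase promoter measured by SteadyGlo luminescence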
# [29] = non-specific cell cytotoxicity, dose response, cytotoxicity control for PAX8 inhibitor project, plate reader, dry powder samples (AID 743021); type: functional, cell-based
# [30] = molecular target: Ras and Rab interactor 1/Tyrosine-protein kinase ABL1 (Homo sapiens, UniProt P00519+Q13671); type: functional;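 also: biochemical TR-FRET dose-response test measuring inhibition of binding between Rin1 and Abl proteins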
# T7 sequence (P98170 whole entry): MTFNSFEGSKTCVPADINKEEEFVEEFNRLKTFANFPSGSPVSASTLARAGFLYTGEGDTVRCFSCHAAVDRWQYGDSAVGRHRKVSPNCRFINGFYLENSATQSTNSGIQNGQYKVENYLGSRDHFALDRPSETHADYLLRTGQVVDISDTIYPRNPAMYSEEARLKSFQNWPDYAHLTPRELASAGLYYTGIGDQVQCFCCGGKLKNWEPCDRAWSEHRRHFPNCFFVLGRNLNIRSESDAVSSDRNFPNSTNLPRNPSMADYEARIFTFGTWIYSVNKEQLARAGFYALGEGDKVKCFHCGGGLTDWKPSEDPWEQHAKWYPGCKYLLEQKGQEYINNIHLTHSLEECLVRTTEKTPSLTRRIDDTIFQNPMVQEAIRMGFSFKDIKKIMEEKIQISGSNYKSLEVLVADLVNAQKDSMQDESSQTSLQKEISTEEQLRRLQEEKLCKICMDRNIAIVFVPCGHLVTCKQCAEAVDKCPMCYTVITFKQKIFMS
# T5 sequence (P10145 whole entry): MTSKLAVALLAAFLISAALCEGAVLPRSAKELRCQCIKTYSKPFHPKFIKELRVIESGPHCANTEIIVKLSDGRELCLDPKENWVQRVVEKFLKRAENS
# Mitogen-activated protein kinase kinase kinase kinase 5, sequence (Q9Y4K4 whole entry): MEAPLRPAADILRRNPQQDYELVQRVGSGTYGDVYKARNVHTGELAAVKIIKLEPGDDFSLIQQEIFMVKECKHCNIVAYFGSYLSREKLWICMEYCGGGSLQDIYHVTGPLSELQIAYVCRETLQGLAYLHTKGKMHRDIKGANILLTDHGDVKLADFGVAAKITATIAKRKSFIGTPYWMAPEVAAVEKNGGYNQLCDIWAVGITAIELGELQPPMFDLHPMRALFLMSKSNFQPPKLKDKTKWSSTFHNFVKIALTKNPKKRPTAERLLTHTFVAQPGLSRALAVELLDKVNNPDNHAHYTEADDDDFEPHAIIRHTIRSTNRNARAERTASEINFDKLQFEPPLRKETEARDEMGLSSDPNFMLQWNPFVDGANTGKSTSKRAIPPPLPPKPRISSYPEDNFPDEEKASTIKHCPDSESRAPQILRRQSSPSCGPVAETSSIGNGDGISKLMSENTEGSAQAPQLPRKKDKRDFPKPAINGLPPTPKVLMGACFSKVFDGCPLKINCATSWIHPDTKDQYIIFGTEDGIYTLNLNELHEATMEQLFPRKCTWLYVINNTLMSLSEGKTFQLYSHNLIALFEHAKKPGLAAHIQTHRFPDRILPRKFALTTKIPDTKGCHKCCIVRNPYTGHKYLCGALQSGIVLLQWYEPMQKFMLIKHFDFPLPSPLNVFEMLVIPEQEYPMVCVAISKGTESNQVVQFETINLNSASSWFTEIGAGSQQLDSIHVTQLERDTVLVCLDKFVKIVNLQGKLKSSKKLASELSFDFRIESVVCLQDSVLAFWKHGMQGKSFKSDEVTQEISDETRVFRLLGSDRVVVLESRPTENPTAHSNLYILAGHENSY
# Dual specificity protein phosphatase 3, sequence (P51452 whole entry): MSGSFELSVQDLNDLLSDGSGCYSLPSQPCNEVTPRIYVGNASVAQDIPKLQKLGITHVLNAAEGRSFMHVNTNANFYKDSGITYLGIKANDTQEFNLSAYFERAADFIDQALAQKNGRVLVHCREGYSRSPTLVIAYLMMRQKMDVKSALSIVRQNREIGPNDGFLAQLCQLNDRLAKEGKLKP
# Melanocortin receptor 4, sequence (P32245 whole entry): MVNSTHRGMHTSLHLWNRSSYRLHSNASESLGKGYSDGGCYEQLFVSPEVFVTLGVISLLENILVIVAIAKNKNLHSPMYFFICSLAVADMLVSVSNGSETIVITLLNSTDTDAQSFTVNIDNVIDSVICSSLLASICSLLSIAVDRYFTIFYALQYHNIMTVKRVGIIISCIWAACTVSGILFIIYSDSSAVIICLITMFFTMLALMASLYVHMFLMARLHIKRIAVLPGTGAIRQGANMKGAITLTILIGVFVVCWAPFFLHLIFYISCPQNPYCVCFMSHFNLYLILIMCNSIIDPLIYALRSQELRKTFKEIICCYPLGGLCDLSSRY
# Glycogen synthase kinase-3 beta, sequence (P49841 whole entry): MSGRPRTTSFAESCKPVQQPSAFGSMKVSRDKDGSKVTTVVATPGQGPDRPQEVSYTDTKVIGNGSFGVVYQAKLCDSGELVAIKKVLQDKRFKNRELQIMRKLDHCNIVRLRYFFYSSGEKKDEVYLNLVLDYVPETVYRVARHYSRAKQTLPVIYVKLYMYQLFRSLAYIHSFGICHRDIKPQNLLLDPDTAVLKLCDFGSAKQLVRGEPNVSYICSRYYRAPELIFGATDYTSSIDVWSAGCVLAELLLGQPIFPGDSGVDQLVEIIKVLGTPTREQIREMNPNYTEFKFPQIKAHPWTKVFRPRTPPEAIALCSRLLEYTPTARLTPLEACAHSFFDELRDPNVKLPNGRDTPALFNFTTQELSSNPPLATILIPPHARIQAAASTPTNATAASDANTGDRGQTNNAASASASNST
# Aryl hydrocarbon receptor, sequence (P35869 whole entry): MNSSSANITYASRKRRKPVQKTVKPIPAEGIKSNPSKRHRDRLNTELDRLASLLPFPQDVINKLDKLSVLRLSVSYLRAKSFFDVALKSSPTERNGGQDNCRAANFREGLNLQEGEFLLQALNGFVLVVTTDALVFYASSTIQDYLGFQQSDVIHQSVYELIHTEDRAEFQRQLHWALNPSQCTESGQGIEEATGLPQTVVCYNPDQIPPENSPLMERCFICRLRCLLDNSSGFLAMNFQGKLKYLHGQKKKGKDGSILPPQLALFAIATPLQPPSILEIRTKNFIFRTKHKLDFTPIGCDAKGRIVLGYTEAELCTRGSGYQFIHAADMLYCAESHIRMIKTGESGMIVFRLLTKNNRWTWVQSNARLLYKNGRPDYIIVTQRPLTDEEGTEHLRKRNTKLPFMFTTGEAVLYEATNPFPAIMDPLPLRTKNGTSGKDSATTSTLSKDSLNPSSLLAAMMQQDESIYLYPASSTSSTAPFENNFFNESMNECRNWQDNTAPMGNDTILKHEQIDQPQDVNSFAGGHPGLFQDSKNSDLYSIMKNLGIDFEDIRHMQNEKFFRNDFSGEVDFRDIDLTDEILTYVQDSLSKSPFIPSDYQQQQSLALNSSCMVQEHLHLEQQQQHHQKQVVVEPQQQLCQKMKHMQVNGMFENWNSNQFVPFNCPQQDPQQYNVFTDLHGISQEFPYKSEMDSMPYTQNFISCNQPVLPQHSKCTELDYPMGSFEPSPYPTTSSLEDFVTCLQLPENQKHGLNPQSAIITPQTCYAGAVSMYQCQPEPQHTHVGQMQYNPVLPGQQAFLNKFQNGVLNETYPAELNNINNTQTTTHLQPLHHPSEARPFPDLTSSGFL
# Paired box protein Pax-8, sequence (Q06710 whole entry): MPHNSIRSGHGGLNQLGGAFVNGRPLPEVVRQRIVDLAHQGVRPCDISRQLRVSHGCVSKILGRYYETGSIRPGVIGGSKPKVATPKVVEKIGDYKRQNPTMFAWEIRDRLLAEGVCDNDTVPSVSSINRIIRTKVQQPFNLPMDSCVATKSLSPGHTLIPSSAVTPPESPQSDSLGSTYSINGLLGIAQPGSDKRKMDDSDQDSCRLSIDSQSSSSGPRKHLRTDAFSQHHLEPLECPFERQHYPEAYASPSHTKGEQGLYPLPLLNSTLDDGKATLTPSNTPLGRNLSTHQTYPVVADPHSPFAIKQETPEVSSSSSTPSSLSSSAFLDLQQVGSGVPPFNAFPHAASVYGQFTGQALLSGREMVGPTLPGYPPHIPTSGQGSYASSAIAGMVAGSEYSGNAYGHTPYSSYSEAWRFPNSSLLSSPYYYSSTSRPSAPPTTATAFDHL
# Serine/threonine-protein kinase pim-1, sequence (P11309 whole entry): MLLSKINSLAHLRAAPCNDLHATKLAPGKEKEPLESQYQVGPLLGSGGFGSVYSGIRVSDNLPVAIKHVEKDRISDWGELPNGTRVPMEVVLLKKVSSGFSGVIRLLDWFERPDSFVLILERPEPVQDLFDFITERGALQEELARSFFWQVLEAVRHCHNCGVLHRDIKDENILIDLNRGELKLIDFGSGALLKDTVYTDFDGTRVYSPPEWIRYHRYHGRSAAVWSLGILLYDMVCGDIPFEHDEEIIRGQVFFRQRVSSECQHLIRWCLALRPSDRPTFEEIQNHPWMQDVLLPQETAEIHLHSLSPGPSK
# Tyrosine-protein phosphatase non-receptor type 11, sequence (Q06124 whole entry): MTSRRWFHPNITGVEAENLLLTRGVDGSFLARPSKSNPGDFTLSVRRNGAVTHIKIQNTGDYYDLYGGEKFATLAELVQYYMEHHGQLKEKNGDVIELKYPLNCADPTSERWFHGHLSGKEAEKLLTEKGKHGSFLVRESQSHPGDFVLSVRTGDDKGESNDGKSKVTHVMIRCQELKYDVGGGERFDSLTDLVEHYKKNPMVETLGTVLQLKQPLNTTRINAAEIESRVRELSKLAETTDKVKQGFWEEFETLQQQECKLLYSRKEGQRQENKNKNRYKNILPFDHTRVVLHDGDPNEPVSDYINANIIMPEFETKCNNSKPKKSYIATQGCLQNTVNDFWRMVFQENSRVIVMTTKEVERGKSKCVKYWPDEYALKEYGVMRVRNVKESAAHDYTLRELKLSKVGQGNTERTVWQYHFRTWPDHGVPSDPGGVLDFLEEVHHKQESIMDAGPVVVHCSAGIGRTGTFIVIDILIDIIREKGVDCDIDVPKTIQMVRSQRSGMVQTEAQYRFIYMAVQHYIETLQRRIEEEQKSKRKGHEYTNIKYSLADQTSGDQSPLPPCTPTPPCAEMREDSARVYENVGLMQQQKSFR
structure (smiles),measurement,setting,value
O=c1cc(C(F)(F)F)c2c(-c3cccc(C(F)(F)F)c3)n[nH]c2[nH]1,Ki,[1],5.01 µM (active)
same,Ki,[2],2 µM (active)
same,Ki,[3],5.01 µM (active)
same,Ki,[4],5.01 µM (active)
same,Ki,[5],5.01 µM (active)
same,Ki,[6],7.94 µM (active)
Oc1ccc(O)c2c(O)cccc12,AC50,[7],39.8 µM (inconclusive)
c1ccc(-c2cc(N3CCCCC3)c3ccccc3n2)cc1,IC50,[8],3.92 µM (not active)
same,IC50,[9],14 µM (active)
same,IC50,[10],9.25 µM (active)
CCOC(=O)N1CCC(N(CCOC)C(=O)Nc2ccc(C)c(C)c2)CC1,IC50,[11],0.477 µM (active)
Cc1ccc(Cn2cc(C=O)c(-c3ccc(C)cc3)n2)cc1,IC50,[12],> 80 µM (inactive)
same,IC50,[13],> 80 µM (inactive)
same,IC50,[14],73.9 µM (inactive)
Cc1cccc(-c2cc3nc(-c4ccccc4)cc(N4CCC5(CC4)OCCO5)n3n2)c1,IC50,CHO-K1,> 66.2 µM (inactive)
same,IC50,[15],> 49.8 µM (inactive)
same,IC50,[16],5.38 µM (active)
same,IC50,[17],12.6 µM (inactive)
same,IC50,Orexin receptor type 2 [18],> 88.8 µM (inactive)
same,IC50,Orexin receptor type 2 [19],> 50 µM (inactive)
O=S(=O)(c1ccc(Br)cc1)c1nc(-c2ccco2)oc1NCCCn1ccnc1,AC50,[20],108 µM (active)
O=S1(=O)CC=C(CSC(=S)NC2CCS(=O)(=O)C2)C1 (stereo unspecified),IC50,Interleukin-8 [21],3.68 µM (active)
same,IC50,Interleukin-8 [22],2.06 µM (active)
COc1cc(/C=N/Nc2nc(Nc3ccc(C)cc3)nc(-n3nc(C)cc3C)n2)cc(OC)c1OC,EC50,[23],1.82 µM (active)
same,EC50,Streptokinase A,> 150 µM (not active)
same,IC50,[24],> 100 µM (inactive)
same,IC50,[25],> 100 µM (not active)
same,EC50,[26],0.608 µM (active)
same,EC50,[27],11 µM (active)
same,EC50,Streptococcus,15.5 µM (active)
same,IC50,Melanocortin receptor 4,> 64.6 µM (inactive)
same,IC50,[28],> 64.6 µM (inactive)
same,AC50,Paired box protein Pax-8,6.57 µM (active)
same,AC50,[29],38.4 µM (active)
Cc1cccc(/C=N/NC(=O)c2cc3c(s2)-c2ccccc2CC3)c1,IC50,CHO-K1,> 66.2 µM (inactive)
same,IC50,[15],> 49.8 µM (inactive)
same,IC50,[16],2.13 µM (active)
same,IC50,[17],2.81 µM (active)
same,IC50,Orexin receptor type 2 [18],> 88.8 µM (inactive)
same,IC50,Orexin receptor type 2 [19],> 50 µM (inactive)
Nc1cc(O)c2[nH]cnc2n1,IC50,[30],33.6 µM (inactive)
